Legend:
[1] = tested on: primary murine fibroblast cultures overexpressing EYA1A; assay: γH2A.X^pY142 labelling after NCS exposure in fibroblasts overexpressing EYA1A; format: cell-based, mouse; conditions: 60 minutes after NCS exposure
Description: (§1) FIGS. 12A-12B show the effect of the established EYA1 γH2A.X^pY142 tyrosine phosphatase inhibitors Na3VO4 (blocking tyrosine phosphatase activity) and caffeine (blocking ATM-dependent recruitment of EYA1 towards γH2A.X) on γH2A.X^pY142 dephosphorylation and fibroblast accumulation. FIG. 12A depicts results of an analysis of photomicrographs of primary murine fibroblast cultures transfected with control plasmids (vector) and plasmids overexpressing EYA1A (EYA1A^oe) or EYA1C (EYA1C^oe). Cells were exposed to either Na3VO4 or caffeine and labelled for 7H2A.X^pY142 60 minutes after NCS exposure (n=100 nuclei each, data are presented as means±s.d., **p<0.01, # no significance, values of p were calculated using Student's t test comparing indicated groups). FIG. 12B depicts results of an analysis of proliferative activity of primary murine fibroblasts transfected with indicated constructs, seeded at a density of 60,000 per well. Proliferative activity was determined at indicated time points after exposure to Na3VO4 or caffeine (n=3 independent replicates, data are presented as means±s.d., ***p<0.001, ****p<0.0001, values of p were calculated using one-way ANOVA with Bonferroni post-hoc analysis comparing control and Na3VO4^− or caffeine-treated cultures overexpressing EYA1A). […]

[2] = tested on: primary murine fibroblast cultures overexpressing EYA1C; assay: γH2A.X^pY142 labelling after NCS exposure in fibroblasts overexpressing EYA1C; format: cell-based, mouse; conditions: 60 minutes after NCS exposure
Description: as §1

[3] = tested on: DNA damage checkpoint activation; assay: Immunoblotting of p-Chk1^pS317 and p-Chk2^pT68 after NCS exposure; format: cell-based, human; conditions: 24 hours after NCS exposure
Description: FIGS. 20A to D depict average foci per nucleus detected in human TK173 and TZ1 cultures transfected with EYA1Δe10-ASO and labelled for γH2A.X^pS139 (FIG. 20A), γH2A.X^pS139/γH2A.X^py142 (FIG. 20B), γH2A.X^pS139/53Bp1 (FIG. 20C), and γH2A.X^pS139/Rpa1 (FIG. 20D) at indicated time points after NCS exposure (n=100 nuclei each, data are presented as means±s.d.). FIGS. 20E and F depict data on the analysis of NHEJ and HR events […] (NHEJ, FIG. 20E) and pDR-GFP (HR, FIG. 20F) reporter plasmids (n=3 independent replicates, data are presented as means±s.d., **p<0.01, ***p<0.001, values of p were calculated using Student's t test comparing indicated groups). FIG. 20G depicts proliferative activity of human kidney fibroblasts at indicated time points after seeding at a density of 60,000 per well (n=3 independent replicates, data are presented as means s.d., and *p<0.05, values of p were calculated using Student's t test comparing EYA1Δe10-ASO-transfected TZ1 with untreated TZ1 cultures). FIG. 20H depicts an analysis of p-Chk1^pS317 and p-Chk2^PT68 by SDS-PAGE and subsequent immunoblotting 24 hours after NCS exposure.
Tissue and cells were homogenized in NP40 lysis buffer (Life technologies, Carlsbad, USA) supplemented with protease inhibitor cocktail (Roche, Basel, Switzerland). […]

Molecule	EYA1A-induced premature γH2A.X^pY142 dephosphorylation [1]	γH2A.X^pY142 in EYA1C overexpressing cells [2]	DNA damage checkpoint activation [3]
[Na+].[Na+].[Na+].[O]=[V]([O-])([O-])[O-] [Na3VO4, sodium orthovanadate]	reversed	neither Na3VO4 nor caffeine affected	
EYA1Δe10-ASO: oligonucleotides targeting intron 9-10/exon 10 (SEQ ID NO: 5) and exon 10/intron 10-11 (SEQ ID NO: 4) splice junctions (antisense 1 CCTTGGACTGCGAATG; antisense 2 TTTCAACTTGGCAGTA; listed as DNA, chemistry not given here)			normalized DNA damage checkpoint activation
Cn1c(=O)c2c(ncn2C)n(C)c1=O [caffeine]	reversed	neither Na3VO4 nor caffeine affected	

Source: patent US11331333B2, “Treatment of aberrant fibroblast proliferation” (Georg August Universitaet Goettingen Stiftung Oeffentlichen …, priority 2019, dated 2022)
